# Laboratory results: paper PMC12401175, “Construction of hyperthermostable D‐allulose 3‐epimerase from Arthrobacter globiformis M30 using the sequence information from Arthrobacter psychrolactophilus” (FEBS Open Bio, 2025)
# Read-outs that look alike come from different tables or passages of the source.
# Key:
# [1] = target: T1, AgDAE (Arthrobacter globiformis, UniProt A0A1L7NQ96); type: biochemical; settings: 50 °C, 50 mM sodium phosphate pH 8.0, 2 mM MgSO4; read-out: Allulose → Fructose / K m
# T1 sequence (A0A1L7NQ96 1-289): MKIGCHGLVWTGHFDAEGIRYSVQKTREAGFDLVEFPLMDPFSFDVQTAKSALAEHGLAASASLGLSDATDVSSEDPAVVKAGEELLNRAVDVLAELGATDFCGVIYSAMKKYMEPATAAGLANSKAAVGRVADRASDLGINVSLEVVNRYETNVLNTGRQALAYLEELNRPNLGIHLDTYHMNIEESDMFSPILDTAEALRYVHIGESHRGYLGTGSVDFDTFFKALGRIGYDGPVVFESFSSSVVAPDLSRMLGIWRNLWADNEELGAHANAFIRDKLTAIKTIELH
# [2] = target: T1, AgDAE; type: biochemical; settings: 50 °C, 50 mM sodium phosphate pH 8.0, 2 mM MgSO4; read-out: Fructose → Allulose / K m
smiles,measurement,setting,value
OCC1(O)OC[C@@H](O)[C@@H](O)[C@H]1O (stereo partly drawn) [D-allulose],Km,[1],11.7 ± 0.7 mM
OCC1(O)OC[C@@H](O)[C@@H](O)[C@@H]1O (stereo partly drawn) [D-fructose],Km,[2],21.1 ± 5.6 mM
